Data taken from ChEMBL document CHEMBL3885881, “DrugMatrix”.

Organism: Rattus norvegicus
Assay: DrugMatrix - Regimen: Daily Repeat
Assay type: toxicity, organism-based, Sprague-Dawley
Design: regimen Daily Repeat, gender Male, age 6-8 weeks
Settings: in vivo, po, route oral GAVAGE, vehicle .5 % CMC; for ABSOLUTE BASOPHIL / ABSOLUTE EOSINOPHIL / ABSOLUTE LYMPHOCYTE / ABSOLUTE MONOCYTE / ABSOLUTE SEGMENTED NEUTROPHIL / BASOPHIL / EOSINOPHIL / ERYTHROCYTE COUNT / HEMATOCRIT / HEMOGLOBIN / LEUKOCYTE COUNT / LYMPHOCYTE / MEAN CORPUSCULAR HEMOGLOBIN / MEAN CORPUSCULAR HEMOGLOBIN CONCENTRATION / MEAN CORPUSCULAR VOLUME / MONOCYTE / NEUTROPHIL / NUCLEATED RED BLOOD CELLS / PLATELET COUNT: tissue Blood; for ALANINE AMINOTRANSFERASE / ALBUMIN / ALKALINE PHOSPHATASE / ASPARTATE AMINOTRANSFERASE / BLOOD UREA NITROGEN / CARBON DIOXIDE / CHLORIDE / CHOLESTEROL / CREATINE PHOSPHOKINASE / CREATININE / GLUCOSE / LACTATE DEHYDROGENASE / LIPASE / PHOSPHORUS / POTASSIUM / SODIUM / TOTAL BILIRUBIN / TOTAL PROTEIN / URIC ACID: tissue Plasma
[1] = 20 mg/kg, 72 h, dose level Low, time 3 day
[2] = 20 mg/kg, 120 h, dose level Low, time 5 day
[3] = 600 mg/kg, 72 h, dose level High, time 3 day
[4] = 600 mg/kg, 120 h, dose level High, time 5 day

For `CC(C)CN(C[C@@H](O)[C@H](Cc1ccccc1)NC(=O)O[C@H]1CCOC1)S(=O)(=O)c1ccc(N)cc1`, the “ABSOLUTE BASOPHIL” value [1] was 0 CELLS/uL, the “ABSOLUTE EOSINOPHIL” value [1] was 148.67 CELLS/uL and the “ABSOLUTE LYMPHOCYTE” value [1] was 12756.67 CELLS/uL. For the same compound, the “ABSOLUTE MONOCYTE” value [1] was 107.67 CELLS/uL, the “ABSOLUTE SEGMENTED NEUTROPHIL” value [1] was 887 CELLS/uL and the BASOPHIL [1] was 0%. The EOSINOPHIL [1] was 1%, the “ERYTHROCYTE COUNT” value [1] was 5.52 x10E6/uL and the HEMATOCRIT [1] was 35.2%. For the same compound, the HEMOGLOBIN [1] was 13.3 G/DL, the “LEUKOCYTE COUNT” value [1] was 13.9 x10E3/uL and the LYMPHOCYTE [1] was 91.67%. For the same compound, the “MEAN CORPUSCULAR HEMOGLOBIN” value [1] was 24.17 pg, the “MEAN CORPUSCULAR HEMOGLOBIN CONCENTRATION” value [1] was 37.8 G/DL and the “MEAN CORPUSCULAR VOLUME” value [1] was 63.87 fL. The MONOCYTE [1] was 0.67%, the NEUTROPHIL [1] was 6.67% and the “NUCLEATED RED BLOOD CELLS” value [1] was 0 /100WBC. The “PLATELET COUNT” value [1] was 1248.33 x10E3/uL, the “ALANINE AMINOTRANSFERASE” value [1] was 50 u/L and the ALBUMIN [1] was 4.23 G/DL. For the same compound, the “ALKALINE PHOSPHATASE” value [1] was 362 u/L, the “ASPARTATE AMINOTRANSFERASE” value [1] was 76.33 u/L and the “BLOOD UREA NITROGEN” value [1] was 16.33 mg/dL. For the same compound, the “CARBON DIOXIDE” value [1] was 26 mmol/L, the CHLORIDE [1] was 102 MEQ/L and the CHOLESTEROL [1] was 67 mg/dL. The “CREATINE PHOSPHOKINASE” value [1] was 172.67 u/L, the CREATININE [1] was 0.21 mg/dL and the GLUCOSE [1] was 169.67 mg/dL. For the same compound, the “LACTATE DEHYDROGENASE” value [1] was 136.67 u/L, the LIPASE [1] was 8 u/L and the PHOSPHORUS [1] was 12.83 mg/dL. The POTASSIUM [1] was 6.23 MEQ/L, the SODIUM [1] was 144.7 MEQ/L and the “TOTAL BILIRUBIN” value [1] was 0.17 mg/dL. For the same compound, the “TOTAL PROTEIN” value [1] was 6.07 G/DL, the “URIC ACID” value [1] was 1.83 mg/dL and the “ABSOLUTE BASOPHIL” value [2] was 0 CELLS/uL. For the same compound, the “ABSOLUTE EOSINOPHIL” value [2] was 74 CELLS/uL, the “ABSOLUTE LYMPHOCYTE” value [2] was 7729 CELLS/uL and the “ABSOLUTE MONOCYTE” value [2] was 39.33 CELLS/uL. For the same compound, the “ABSOLUTE SEGMENTED NEUTROPHIL” value [2] was 524.33 CELLS/uL, the BASOPHIL [2] was 0% and the EOSINOPHIL [2] was 1%. The “ERYTHROCYTE COUNT” value [2] was 5.73 x10E6/uL, the HEMATOCRIT [2] was 35.57% and the HEMOGLOBIN [2] was 13.37 G/DL. The “LEUKOCYTE COUNT” value [2] was 8.37 x10E3/uL, the LYMPHOCYTE [2] was 92% and the “MEAN CORPUSCULAR HEMOGLOBIN” value [2] was 23.33 pg. For the same compound, the “MEAN CORPUSCULAR HEMOGLOBIN CONCENTRATION” value [2] was 37.63 G/DL, the “MEAN CORPUSCULAR VOLUME” value [2] was 62.13 fL and the MONOCYTE [2] was 0.33%. For the same compound, the NEUTROPHIL [2] was 6.67%, the “NUCLEATED RED BLOOD CELLS” value [2] was 0 /100WBC and the “PLATELET COUNT” value [2] was 1179.33 x10E3/uL. The “ALANINE AMINOTRANSFERASE” value [2] was 54.33 u/L, the ALBUMIN [2] was 4.43 G/DL and the “ALKALINE PHOSPHATASE” value [2] was 421.33 u/L. The “ASPARTATE AMINOTRANSFERASE” value [2] was 83 u/L, the “BLOOD UREA NITROGEN” value [2] was 14.33 mg/dL and the “CARBON DIOXIDE” value [2] was 28.33 mmol/L. For the same compound, the CHLORIDE [2] was 101 MEQ/L, the CHOLESTEROL [2] was 68 mg/dL and the “CREATINE PHOSPHOKINASE” value [2] was 229.67 u/L. The CREATININE [2] was 0.2 mg/dL, the GLUCOSE [2] was 141 mg/dL and the “LACTATE DEHYDROGENASE” value [2] was 108 u/L. It also gave an LIPASE [2] of 8.67 u/L, a PHOSPHORUS [2] of 12.47 mg/dL and a POTASSIUM [2] of 6.58 MEQ/L. The SODIUM [2] was 146.5 MEQ/L, the “TOTAL BILIRUBIN” value [2] was 0.2 mg/dL and the “TOTAL PROTEIN” value [2] was 6.3 G/DL. The “URIC ACID” value [2] was 1.3 mg/dL, the “ABSOLUTE BASOPHIL” value [3] was 0 CELLS/uL and the “ABSOLUTE EOSINOPHIL” value [3] was 50.33 CELLS/uL. The “ABSOLUTE LYMPHOCYTE” value [3] was 11050.67 CELLS/uL, the “ABSOLUTE MONOCYTE” value [3] was 72.33 CELLS/uL and the “ABSOLUTE SEGMENTED NEUTROPHIL” value [3] was 1093.33 CELLS/uL. For the same compound, the BASOPHIL [3] was 0%, the EOSINOPHIL [3] was 0.33% and the “ERYTHROCYTE COUNT” value [3] was 5.53 x10E6/uL. For the same compound, the HEMATOCRIT [3] was 35.5%, the HEMOGLOBIN [3] was 13.6 G/DL and the “LEUKOCYTE COUNT” value [3] was 12.27 x10E3/uL. For the same compound, the LYMPHOCYTE [3] was 89.67%, the “MEAN CORPUSCULAR HEMOGLOBIN” value [3] was 24.57 pg and the “MEAN CORPUSCULAR HEMOGLOBIN CONCENTRATION” value [3] was 38.27 G/DL. For the same compound, the “MEAN CORPUSCULAR VOLUME” value [3] was 64.1 fL, the MONOCYTE [3] was 0.67% and the NEUTROPHIL [3] was 9.33%. For the same compound, the “NUCLEATED RED BLOOD CELLS” value [3] was 0 /100WBC, the “PLATELET COUNT” value [3] was 1258 x10E3/uL and the “ALANINE AMINOTRANSFERASE” value [3] was 56.67 u/L. For the same compound, the ALBUMIN [3] was 4.33 G/DL, the “ALKALINE PHOSPHATASE” value [3] was 381 u/L and the “ASPARTATE AMINOTRANSFERASE” value [3] was 116.67 u/L. For the same compound, the “BLOOD UREA NITROGEN” value [3] was 16 mg/dL, the “CARBON DIOXIDE” value [3] was 25 mmol/L and the CHLORIDE [3] was 107.33 MEQ/L. The CHOLESTEROL [3] was 69 mg/dL, the “CREATINE PHOSPHOKINASE” value [3] was 1567.67 u/L and the CREATININE [3] was 0.18 mg/dL. The GLUCOSE [3] was 194.33 mg/dL, the “LACTATE DEHYDROGENASE” value [3] was 164.67 u/L and the LIPASE [3] was 8.67 u/L. The PHOSPHORUS [3] was 14.17 mg/dL, the POTASSIUM [3] was 6.64 MEQ/L and the SODIUM [3] was 145.83 MEQ/L. The “TOTAL BILIRUBIN” value [3] was 0.23 mg/dL, the “TOTAL PROTEIN” value [3] was 5.97 G/DL and the “URIC ACID” value [3] was 2.07 mg/dL. For the same compound, the “ABSOLUTE BASOPHIL” value [4] was 0 CELLS/uL, the “ABSOLUTE EOSINOPHIL” value [4] was 292.33 CELLS/uL and the “ABSOLUTE LYMPHOCYTE” value [4] was 15254.33 CELLS/uL. For the same compound, the “ABSOLUTE MONOCYTE” value [4] was 69 CELLS/uL, the “ABSOLUTE SEGMENTED NEUTROPHIL” value [4] was 1517.67 CELLS/uL and the BASOPHIL [4] was 0%. For the same compound, the EOSINOPHIL [4] was 1.67%, the “ERYTHROCYTE COUNT” value [4] was 5.48 x10E6/uL and the HEMATOCRIT [4] was 34.63%. For the same compound, the HEMOGLOBIN [4] was 13.17 G/DL, the “LEUKOCYTE COUNT” value [4] was 17.13 x10E3/uL and the LYMPHOCYTE [4] was 88.67%. For the same compound, the “MEAN CORPUSCULAR HEMOGLOBIN” value [4] was 24.03 pg, the “MEAN CORPUSCULAR HEMOGLOBIN CONCENTRATION” value [4] was 38 G/DL and the “MEAN CORPUSCULAR VOLUME” value [4] was 63.2 fL. The MONOCYTE [4] was 0.33%, the NEUTROPHIL [4] was 9.33% and the “NUCLEATED RED BLOOD CELLS” value [4] was 0 /100WBC. For the same compound, the “PLATELET COUNT” value [4] was 1347.67 x10E3/uL, the “ALANINE AMINOTRANSFERASE” value [4] was 41.67 u/L and the ALBUMIN [4] was 4.2 G/DL. The “ALKALINE PHOSPHATASE” value [4] was 390 u/L, the “ASPARTATE AMINOTRANSFERASE” value [4] was 76.33 u/L and the “BLOOD UREA NITROGEN” value [4] was 15.67 mg/dL. The “CARBON DIOXIDE” value [4] was 27.33 mmol/L, the CHLORIDE [4] was 102.33 MEQ/L and the CHOLESTEROL [4] was 58.67 mg/dL. For the same compound, the “CREATINE PHOSPHOKINASE” value [4] was 202 u/L, the CREATININE [4] was 0.21 mg/dL and the GLUCOSE [4] was 161.33 mg/dL. The “LACTATE DEHYDROGENASE” value [4] was 95.67 u/L, the LIPASE [4] was 8.33 u/L and the PHOSPHORUS [4] was 12.93 mg/dL. The POTASSIUM [4] was 6.23 MEQ/L, the SODIUM [4] was 144.37 MEQ/L and the “TOTAL BILIRUBIN” value [4] was 0.17 mg/dL. For the same compound, the “TOTAL PROTEIN” value [4] was 6 G/DL and the “URIC ACID” value [4] was 1.77 mg/dL.
